Reference: PMC13360702, “An Agonist/Antagonist Photo‐Switchable Vitamin D Mimetic Enables Bidirectional Optical Control of VDR” (Angewandte Chemie (International Ed. in English), 2026)

Target: T1, VDR (Homo sapiens, UniProt P11473)
T1 construct: -CMV-VDR-LBD coding for the hinge region and; expressed in transfected cells; host or cells: HEK293T
T1 sequence (P11473 127-423 limits assumed): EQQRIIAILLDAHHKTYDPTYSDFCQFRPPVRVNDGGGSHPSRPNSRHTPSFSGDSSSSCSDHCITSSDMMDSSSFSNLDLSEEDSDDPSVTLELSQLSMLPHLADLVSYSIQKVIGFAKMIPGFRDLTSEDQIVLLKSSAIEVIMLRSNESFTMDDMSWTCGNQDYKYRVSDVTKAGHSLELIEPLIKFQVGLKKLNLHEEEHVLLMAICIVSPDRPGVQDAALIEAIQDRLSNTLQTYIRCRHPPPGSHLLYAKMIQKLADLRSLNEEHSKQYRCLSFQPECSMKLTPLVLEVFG
Assay: fluorescent (mCherry) reporter gene assay, in‐cell VDR activation over time
Assay type: cell-based
Conditions: 1 µM
Method: To evaluate the potential of 10 for in‐cell control of VDR activity, we determined its light‐dependent effect over time (Figure 3a) using VDR‐induced expression of the fluorescent protein mCherry as reporter for non‐invasive monitoring. Under illumination with a Cell‐Disco [24]
FIGURE 3 Optical control of VDR activity with photo‐vitD (10). (a) 10 (1 µM) enabled light‐dependent in‐cell activation of VDR in a fluorescent (mCherry) reporter gene assay. Gray curve: dark; blue curve: Cell‐Disco (370 nm; 100 ms/10 s); yellow curve: dark for 10 h, then Cell‐Disco (370 nm); magenta curve: Cell‐Disco (370 nm) for 10 h, then Cell‐Disco (450 nm). Lines are the mean, shadows are S.E.M.; n = 6. (b–d) Phenotypic model of bone formation using human […] (ASC52telo hTERT cells) and cyclic treatment with dexamethasone, 2‐phospho‐L‐ascorbic acid, and glycerol 2‐phosphate over 15 days to induce osteogenesis. Alkaline phosphatase (ALP) activity (b) and von Kossa staining of hydroxyapatite (c; representative photomicrographs in d) were used as markers of osteogenesis. Experiments were performed in the dark (gray bars) and using a Cell‐Disco (370 nm, 100 ms/10 s; blue bars). Data are the mean±SD, n = 6. * p<0.05, ** p<0.01, *** p<0.001 (vs. respective dark or illuminated DMSO (diff.) ctrl or as indicated; ANOVA with Dunnett's multiple comparisons test).
Gal4-hybrid reporter gene assays. […] After 14−16 h incubation, luciferase activity was measured using the Dual -Glo Luciferase Assay System (Promega) according to the manufacturer’s protocol on a Tecan Spark luminometer (Tecan Deutschland GmbH, Crailsheim, Germany). […] EC 50 and IC50 values were calculated by fitting dose−response data with the equation “[agonist] vs response − variable slope (four parameters)” or “[inhibitor] vs response − variable slope (four parameters)” in GraphPad Prism (version 7, GraphPad software, La Jolla, CA, USA). […]
Fluorescent Reporter Gene Assay. The fluorescence reporter gene assay was performed in HEK293T […]

VDR‐induced mCherry fluorescence over time (without illumination (dark)): no increase in fluorescence
Compound: CCCc1cc(C(O)(CC)CC)ccc1-c1ccc(/N=N/c2ccc3cc(C(=O)O)ccc3c2)cc1C [compound 10]
VDR‐induced mCherry fluorescence over time (Cell‐Disco 370 nm for 10 h, then switched back to (E)‐state with 450 nm light): the increase in mCherry fluorescence ceased
VDR‐induced mCherry fluorescence over time (Cell‐Disco 370 nm, 100 ms/10 s ((Z)‐state)): mCherry fluorescence constantly increased
